# Results as given in PubChem BioAssay (NCI).
#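 Five concentrations, 48 hours, 96-well plates. The concentration for 50% growth inhibition is given as GI50. At the TGI there is no net growth.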
# Legend:
# Assay in all cases: growth of human tumour cells (NCI), 48 h
# SF-295 CNS = tested on: SF-295 CNS
# U251 CNS = tested on: U251 CNS
# SF-539 CNS = tested on: SF-539 CNS
# TK-10 renal = tested on: TK-10 renal
# HCC-2998 colon = tested on: HCC-2998 colon
# RPMI-8226 leukemia = tested on: RPMI-8226 leukemia
# RXF 393 renal = tested on: RXF 393 renal
# K-562 leukemia = tested on: K-562 leukemia
# HCT-15 colon = tested on: HCT-15 colon
# NCI-H226 lung = tested on: NCI-H226 lung
SMILES,TGI (SF-295 CNS) [µM],TGI (U251 CNS) [µM],TGI (SF-539 CNS) [µM],TGI (TK-10 renal) [µM],TGI (HCC-2998 colon) [µM],TGI (RPMI-8226 leukemia) [µM],TGI (RXF 393 renal) [µM],TGI (K-562 leukemia) [µM],TGI (HCT-15 colon) [µM],TGI (NCI-H226 lung) [µM],GI50 (U251 CNS) [µM],GI50 (SF-539 CNS) [µM],GI50 (NCI-H226 lung) [µM],GI50 (TK-10 renal) [µM],GI50 (HCC-2998 colon) [µM],GI50 (RXF 393 renal) [µM],GI50 (K-562 leukemia) [µM],GI50 (HCT-15 colon) [µM],GI50 (RPMI-8226 leukemia) [µM],GI50 (SF-295 CNS) [µM]
CN(C)c1ccc(C(N)=O)cn1,> 100,> 100,> 100,> 100,> 100,> 100,> 100,> 100,> 100,–,–,–,–,–,–,–,–,–,–,–
O=[N+]([O-])c1nccn1CC1OC(n2ccnc2[N+](=O)[O-])C(O)C(O)C1O (stereo not given),–,> 100,–,> 100,> 100,> 100,> 100,> 100,–,> 100,–,–,–,–,–,–,–,–,–,–
CN(C)CCNC(=O)c1ccc(Cl)c2c(Nc3ccc(S(N)(=O)=O)cc3)c3ccccc3nc12,15.3,14.1,4.79,13.6,14.8,29.1,–,11.4,15.5,4.56,–,–,–,–,–,–,–,–,–,–
COc1ccc(-c2ccc(/C=N/n3c(COc4ccc(Cl)cc4)n[nH]c3=S)o2)c([N+](=O)[O-])c1,–,49.7,42.2,37.1,31.2,–,32.3,53.4,45.8,57.8,15.5,18.6,13.5,14.6,16.5,12.7,11.6,16,–,–
N#Cc1ccccc1NC(=O)c1ccccc1,> 100,> 100,> 100,> 100,–,> 100,> 100,> 100,> 100,–,–,–,–,–,–,–,–,–,–,–
N/N=C(\Cc1ccccc1)NN=C(N)N,> 100,> 100,> 100,> 100,> 100,> 100,–,> 100,> 100,> 100,–,–,–,–,–,–,–,–,–,–
Oc1cc(Cl)ccc1Oc1ccc(Cl)cc1Cl,–,10.1,7.74,9.59,6.61,5.7,5.09,–,10.9,6.82,2.73,2.58,2.32,3.47,2.57,2.06,–,3.31,2.02,–
COc1ccc2cc3n(c2c1)CCc1cc(OC)c(OC)cc1-3,> 100,> 100,> 100,> 100,> 100,–,> 100,> 100,–,> 100,–,–,–,–,–,–,–,–,–,–
CS(=O)(=O)Nc1cc(-c2ccc3ncnc(Nc4ccc5c(cnn5Cc5ccc(F)cc5)c4)c3c2)cnc1Cl,9.61,11.1,5.29,–,3.17,–,2.26,12.7,21.3,11,1.41,1.5,2.18,–,1.41,0.38,1.4,3.21,–,2.06
O=[N+]([O-])c1ccc(CS(=O)Cc2ccccc2)cc1 (stereo not given),> 100,> 100,> 100,> 100,–,> 100,> 100,> 100,> 100,> 100,–,–,–,–,–,–,–,–,–,–
[O-]c1on[n+]2c1c(Nc1ccc(Cl)cc1)nc1ccccc12,> 100,> 100,> 100,> 100,> 100,> 100,> 100,> 100,–,–,–,–,–,–,–,–,–,–,–,–
CC[CH2][Pb]([CH2]CC)([CH2]CC)[NH]S(=O)(=O)c1ccc(C)cc1,0.203,0.292,0.155,0.36,0.2,0.131,0.0869,–,0.312,–,0.089,0.0659,–,0.0971,0.0727,0.0218,–,0.125,0.0259,0.0898
N#CC1C(N)=NNC12Nc1ccccc1N2 (stereo not given),69.4,> 100,–,73.3,> 100,7.8,7.27,78.6,> 100,–,22.6,–,–,30.7,31.9,0.335,14,31.4,2.91,18.8
FC(F)(F)c1ccc2nc(Nc3ccc(Cl)c(Cl)c3)c(-c3ccccc3)nc2c1,> 100,> 100,> 100,> 100,> 100,> 100,> 100,–,> 100,> 100,–,–,–,–,–,–,–,–,–,–
CC(C)(Br)C(=O)/C=C/c1ccccc1,> 53.6,20.5,25.6,37.9,–,3.14,3.12,> 100,4.63,24,–,–,–,–,–,–,–,–,–,–
CC(=O)C1=C([O-])C(C)OC1=O.CC(=O)C1=C([O-])C(C)OC1=O.[NH-]C1CCCC[C@H]1[NH-].[Pt+4] (stereo not given),> 100,> 100,–,> 100,> 100,> 100,> 100,> 100,> 100,–,> 100,–,–,> 100,> 100,> 100,61.2,67.4,8.72,> 100
COc1cnc2c(c1)C(=O)c1c-2n(CCCN2CCCC2)c(=O)c2cc(Cl)ccc12,6.8,7.96,–,–,12.1,16.3,5.82,11.4,10.3,14.4,0.0383,–,3.27,–,5.07,0.705,0.792,1.73,5.26,0.0278
CCOC(=O)/C(C#N)=C1\N[C@H](C(=O)OCC)CO1,> 100,> 100,> 100,–,> 100,> 100,> 100,> 100,> 100,> 100,–,–,–,–,–,–,–,–,–,–
O=c1cccccc1NCCCCCCCCCNc1cccccc1=O,44.3,30,21.3,–,78.7,22.3,79.3,26.9,39.9,43.4,–,–,–,–,–,–,–,–,–,–
